In patent US20090117089A1, “GLYCOLIPIDS AND ANALOGUES THEREOF AS ANTIGENS FOR NK T CELLS” (The Rockefeller University, priority 2005, published 2009):

Experiments:
[1] = system: Vα24i human NKT cell line; assay: In vitro cytokine secretion assay using human NKT cell lines; format: cell-based; conditions: CD14+ immature dendritic cells; 10 μg/ml glycolipid (1-10 μg/ml for 3-O-sulfo-α-galactosylceramide); 10 IU/ml IL-2
Procedure: (§1) Human NKT cell lines, expressing the Vα24i T cell receptor as well as CD161, were generated as follows: Anti-CD161 monoclonal antibodies, and anti-CD14 monoclonal antibodies, each coupled to magnetic beads (Miltenyi biotec, Auburn, Calif.), were used sequentially to isolate CD161^+ cells and CD14^+ cells from leukopaks. Immature dendritic cells were generated from the CD14^+ cells after a two-day incubation in the presence of 300 U/ml GM-CSF (R&D systems, Minneapolis, Minn.) and 100 U/ml IL-4 (R&D systems, Minneapolis, Minn.). Following irradiation with 2000 rads, the immature dendritic cells were co-cultured with syngeneic CD161^+ cells in the presence of 100 ng/ml of alpha-galactosylceramide and 10 IU/ml of IL-2 (Invitrogen, Carlsbad Calif.) for 10 to 14 days. After stimulating the CD161^+ cells a second time with alpha-galactosylceramide-pulsed, irradiated immature dendritic cells, NKT cell lines were shown by flow cytometry to express both CD161^+ and V 24i TCR (99% purity).
(§2) IFN-γ and IL-4 secretion by the Vα 24i human NKT cell line was determined by ELISA (BD Pharmingen, San Diego, Calif.) after culture for 16 hours. For these assays, 1×10^5 Vα 24i human NKT cells were co-cultured with 4×10^5 irradiated, immature CD14^+ dendritic cells, in the presence of the glycolipid compounds at 10 μg/ml in a 96-well flat-bottom plate.
as §1, with “of 100-0.1” for “of 100”
In some cases, Hela cells were transfected with a human CD1d construct [Xing et al. 2005. Bioorg Med Chem 13: 2907], and were used to present the glycolipids, via pulsing with the respective compounds at the indicated concentration, to NKT lines.
as §2, with “IFN-γ” for “IFN-γ and IL-4”

[2] = system: A20 tumor cells; assay: Tumor protection assay, A20; format: in vivo, mouse; conditions: A20 challenge s.c.
Procedure: Mice were also injected i.v. with PBS, 2 μg α-Gal Cer, 5×10^6 irradiated A20 cells with or without 2 μg α-Gal Cer i.v. Two weeks later, mice were challenged with a lethal tumorogenic dose of 5×10^6 live A20 s.c. The mice were monitored every other day for tumor growth and were scored positive when the tumors were palpable.

CCCCCCCCCCCCCCCCCCCCCCCCCC(=O)N[C@@H](CO[C@H]1O[C@H](CO)[C@H](O)[C@H](O)[C@H]1O)[C@H](O)[C@H](O)CCCCCCCCCCCCCC [α-GalCer, 2S,3S,4R-1-O(α-galactopyranosyl)-2(N-hexacosanoylamino)-1,3,4-octadecanetriol]
IFN-γ secretion [1]: greater IFN-γ and IL-4 secretion
IL-4 secretion [1]: greater IFN-γ and IL-4 secretion
tumor outcome after combined vaccination ([2]; irradiated A20 cells and α-Gal Cer i.v.): protected and remained tumor-free
tumor outcome after glycolipid alone ([2]; α-Gal Cer pretreatment alone): development of palpable tumors
